Measurements from patent US10794932B2, “Biosensor for the detection of a biological target, and method for manufacturing the same” (The Governing Council of The University of Toronto, priority 2016, dated 2020).

Target: T1, rmTLR1 (Mus musculus, UniProt Q9EPQ1)
T1 construct: purchased R&D Systems RDS1476TR050
T1 sequence (Q9EPQ1 26-795): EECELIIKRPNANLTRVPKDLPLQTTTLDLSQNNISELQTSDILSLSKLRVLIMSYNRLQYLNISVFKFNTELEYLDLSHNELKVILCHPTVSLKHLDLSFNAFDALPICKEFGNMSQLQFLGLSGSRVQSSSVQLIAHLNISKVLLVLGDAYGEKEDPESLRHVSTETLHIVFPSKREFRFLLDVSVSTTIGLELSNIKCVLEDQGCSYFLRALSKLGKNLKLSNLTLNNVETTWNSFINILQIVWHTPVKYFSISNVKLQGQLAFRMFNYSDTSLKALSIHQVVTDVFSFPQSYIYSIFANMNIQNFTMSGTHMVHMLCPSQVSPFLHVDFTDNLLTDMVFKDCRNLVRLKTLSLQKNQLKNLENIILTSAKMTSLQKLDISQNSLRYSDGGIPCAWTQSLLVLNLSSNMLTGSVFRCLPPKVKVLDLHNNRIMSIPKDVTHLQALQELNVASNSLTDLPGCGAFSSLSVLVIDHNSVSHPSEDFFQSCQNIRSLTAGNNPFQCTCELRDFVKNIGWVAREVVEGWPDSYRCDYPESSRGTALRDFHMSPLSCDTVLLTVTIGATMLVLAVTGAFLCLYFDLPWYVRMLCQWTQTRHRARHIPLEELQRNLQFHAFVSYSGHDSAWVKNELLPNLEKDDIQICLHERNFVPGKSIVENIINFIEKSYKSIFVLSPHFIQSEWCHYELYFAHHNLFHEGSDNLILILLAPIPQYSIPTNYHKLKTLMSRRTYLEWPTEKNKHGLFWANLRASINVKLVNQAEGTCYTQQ
Experiment: Label-free TLR1 sensor, EIS detection of Pam3CSK4 (Example 7)
Format: binding
Settings: for delta Rct %: 20 minutes; for Rct: before immersion 10250
Method: TLR sensors were prepared using fresh, cleaned gold electrodes. The electrodes were immersed in a 2 mM 1-lipoic acid n-hydroxysuccinimide ester (LPA) ethanol solution for 48 hours at 277 K. The electrodes were then rinsed thoroughly using absolute ethanol and blown dry under nitrogen before incubation in 200 μg/ml rmTLR1, 200 μg/ml rmTLR2 and 200 μg/ml ‘rmTLR1 and 2’ mixture for 72 hours at 277 K. The rmTLR1 and 2 mixture was prepared by mixing 200 μg/ml rmTLR1 and 200 μg/ml rmTLR2 with a volume ratio of 1:1. The final concentration of each component was 100 μg/ml and the total concentration of the combined TLR protein content was 200 μg/ml. Following the supplier's recommended conditions, all TLRs were prepared in PBS buffer (pH˜7.4). The electrodes were rinsed with an excess volume of Milli-Q water and blown dry under nitrogen. An ethanolamine-tris buffer solution was prepared by dissolving 1.2 g of ethanolamine and 0.121 g of Tris base in 20 mL of water, the pH was adjusted to 8.4 using hydrochloric acid. TLR-immobilized electrodes were incubated in the ethanolamine solution for one hour at room temperature in order to block any remaining unreacted LPA amine sites. The fabricated sensors with immobilized, standalone rmTLR3, rmTLR4/MD-2 and rmTLR5, used for the selectivity test, were prepared using the same protocol described above.
Pam3CSK4 was dissolved in 10 mM HEPES aqueous buffer at pH˜7.4. The blocked rmTLR biosensors were incubated in Pam3CSK4 at various concentrations for 20 minutes. The electrodes were always washed thoroughly with same HEPES buffer (pH˜7.4) after the incubation.
All electrochemical measurements were carried out using a cell with a three-electrode configuration in an enclosed Faraday cage. CV and EIS measurements were completed using a CHI-660b potentiostat (CH Instruments, Austin, Tex.). rmTLR-modified gold electrodes and platinum (Pt) wire were used as the working electrode and the counter electrode, respectively. A reference electrode (Ag/AgCl/3.0M KCl) and a salt bridge, filled with an agar and 1M KNO3 aqueous solution, were inserted to minimize the diffusion of chloride ions into the electrolyte solution. The agar solution was prepared by dissolving 2.0 grams of agar and 10.1 g KNOB in 100 mL of water. The CV and EIS electrolyte was made in a 10 mM HEPES aqueous buffer at pH˜7.4, which consisted of a 5 mM K4Fe(CN)6/5 mM K3Fe(CN)6 as a redox couple with 1M of NaClO4 as the supporting electrolyte. For consistency, the electrochemical measurements were carried out with open-circuit potentials. EIS experiments were conducted in the frequency range of 100,000 to 0.1 Hz with an amplitude of 5 mV. The experimental EIS curves were evaluated to determine the film resistance using ZSimpWin 2.0 software.

Pam3CSK4 was tested, and the limit of detection was 10 µM, the “delta Rct %” value (5 μM) was “not significant” and the “delta Rct %” value (25 μM) was 59±7%. For the same substance, the “delta Rct %” value (50 μM) was 98±10%, the Rct (after 5 μM) was 10780 Ω · cm^2 and the Rct (after 10 μM) was 12760 Ω · cm^2. For the same substance, the Rct (after 25 μM) was 16840 Ω · cm^2 and the Rct (after 50 μM) was 21010 Ω · cm^2.
